Results as given in US20050209157A1, “Short bioactive peptides and methods for their use” (priority 2001, published 2005).
No end group written: not given here.

Experiments:
[1] = test system: Pseudomonas aeruginosa ATCC 9027; experiment: Antimicrobial assay I, MIC by OD measurement; type: cell-based; conditions: 37° C. for 24 hours, absorbance 620 nm
[2] = test system: Staphylococcus aureus ATCC 6538; experiment: Antimicrobial assay I, MIC by OD measurement; type: cell-based; conditions: 37° C. for 24 hours, absorbance 620 nm
[3] = test system: yeast (Saccharomyces cerevisiae); experiment: Antimicrobial assay I, yeast assay in RPMI 1640; type: cell-based; conditions: RPMI 1640 media
[4] = test system: BMKC; experiment: Anti-cancer assay, MTT, LD50; type: cell-based; conditions: BMKC cloned melanoma line, 24 hours with peptide
From the text: (§1) Numbers are LD50 values (μg/mL).

[5] = test system: H1299; experiment: Anti-cancer assay, MTT, LD50; type: cell-based; conditions: 24 hours with peptide, lung large cell carcinoma
From the text: as §1

[6] = test system: HeLaS3; experiment: Anti-cancer assay, MTT, LD50; type: cell-based; conditions: 24 hours with peptide, cervical carcinoma
From the text: as §1

[7] = test system: MCF7; experiment: Anti-cancer assay, MTT, LD50; type: cell-based; conditions: MCF7 breast adenocarcinoma line, MTT, 24 hours with peptide
From the text: as §1

[8] = test system: PC3; experiment: Anti-cancer assay, MTT, LD50; type: cell-based; conditions: 24 hours with peptide, prostate adenocarcinoma
From the text: as §1

[9] = test system: SW480; experiment: Anti-cancer assay, MTT, LD50; type: cell-based; conditions: SW480 colon adenocarcinoma line, 24 hours with peptide
From the text: as §1

[10] = test system: human red blood cells (RBC); experiment: in vitro; type: cell-based; conditions: hemolytic assay, concentration at 50% hemolysis, 1 hour at 37° C.
[11] = test system: WI38; conditions: MTT, 24 hours with peptide; for WI38 LD50: normal fibroblast line; for LD50 WI38: WI38 normal lung fibroblast line
[12] = in vitro; conditions: human, WI38 normal lung fibroblast cells, 24 hours with peptide
[13] = LD50 WI38, WI38 normal lung fibroblast line, MTT

Row | Substance | paerug9027 (MIC) [1] | staph6538 (MIC) [2] | yeast (MIC or MFC) [3] | LD50 BMKC [4] | H1299 LD50 [5] | HeLaS3 LD50 [6] | LD50 MCF7 [7] | PC3 LD50 [8] | LD50 SW480 [9] | LD50 [10] | WI38 LD50 [11] | LD50 WI38 [11] | CC50 at 24 h [12, 13] [µg/mL] | CC50 at 24 h ([12]; WI38 LD50, MTT, normal fibroblast line) [µg/mL]
1 | FAKLLAKLAKAKG-NH2 [P96] | > (> indicates greater than 200 μg/mL) | > (> indicates greater than 200 μg/mL) | > (> indicates greater than 200 μg/mL) | > (> indicates greater than 1000) | > (> indicates greater than 1000) | > (> indicates greater than 1000) | > (> indicates greater than 1000) | > (> indicates greater than 1000) | > (> indicates greater than 1000) | > (> indicates greater than 1000) | > (> indicates greater than 1000) | > (> indicates greater than 1000) |  | 
2 | KLAKKLAKLAKLAKAL-OH [P160, reference compound] |  |  |  | 220 µg/mL | 470 µg/mL | 550 µg/mL | 320 µg/mL | 450 µg/mL | 370 µg/mL | > (> indicates greater than 1000) | 700 µg/mL |  | 700 | 
3 | FAKLLAKLAKKAA-NH2 [P93] |  |  |  |  | 320 µg/mL | > (> indicates greater than 1000) |  | 690 µg/mL |  | > (> indicates greater than 1000) |  |  |  | 530
4 | FGKGIGKVGKKLL-NH2 [P132] | 100 µg/mL | > (> indicates greater than 200 μg/mL) | > (> indicates greater than 200 μg/mL) | > (> indicates greater than 1000) | > (> indicates greater than 1000) | > (> indicates greater than 1000) | > (> indicates greater than 1000) | > (> indicates greater than 1000) | > (> indicates greater than 1000) | > (> indicates greater than 1000) | > (> indicates greater than 1000) | > (> indicates greater than 1000) |  | 
5 | FAKLFAKAFKKAL-NH2 [P117, FAKLFAKAFKKAL-NH2] | 200 µg/mL | 100 µg/mL | 200 µg/mL | > (> indicates greater than 1000) | > (> indicates greater than 1000) | > (> indicates greater than 1000) | > (> indicates greater than 1000) | > (> indicates greater than 1000) | > (> indicates greater than 1000) | > (> indicates greater than 1000) | > (> indicates greater than 1000) | > (> indicates greater than 1000) |  | 
6 | FAKLLAKAFKKAL-NH2 [P114, FAKLLAKAFKKAL-NH2] | 15 µg/mL | 50 µg/mL | 100 µg/mL | > (> indicates greater than 1000) | > (> indicates greater than 1000) | > (> indicates greater than 1000) | 730 µg/mL | > (> indicates greater than 1000) | > (> indicates greater than 1000) | > (> indicates greater than 1000) | > (> indicates greater than 1000) | > (> indicates greater than 1000) |  | 
7 | FAKKLAKALL-NH2 [P58] | 100 µg/mL | 100 µg/mL | 200 µg/mL | > (> indicates greater than 1000) | > (> indicates greater than 1000) | > (> indicates greater than 1000) | > (> indicates greater than 1000) | > (> indicates greater than 1000) | > (> indicates greater than 1000) | > (> indicates greater than 1000) | > (> indicates greater than 1000) | > (> indicates greater than 1000) |  | 
8 | KKVVFKVKFK-NH2 [P302, reference compound] |  |  |  | 700 µg/mL | 720 µg/mL | > (> indicates greater than 1000) | 340 µg/mL | > (> indicates greater than 1000) | > (> indicates greater than 1000) | > (> indicates greater than 1000) | 800 µg/mL |  | 800 | 
9 | KFKKLAKKF-NH2 [P174] |  |  |  | > (> indicates greater than 1000) | > (> indicates greater than 1000) | > (> indicates greater than 1000) | > (> indicates greater than 1000) | > (> indicates greater than 1000) | > (> indicates greater than 1000) | > (> indicates greater than 1000) | > (> indicates greater than 1000) | > (> indicates greater than 1000) |  | 
10 | YAKLLAKLAKKAL-NH2 [P155, YAKLLAKLAKKAL-NH2] | > (> indicates greater than 200 μg/mL) | > (> indicates greater than 200 μg/mL) | > (> indicates greater than 200 μg/mL) | > (> indicates greater than 1000) | > (> indicates greater than 1000) | > (> indicates greater than 1000) | > (> indicates greater than 1000) |  | > (> indicates greater than 1000) | > (> indicates greater than 1000) | > (> indicates greater than 1000) | > (> indicates greater than 1000) |  | 
11 | FALALKALKKA-NH2 [P176] | > (> indicates greater than 200 μg/mL) | > (> indicates greater than 200 μg/mL) | > (> indicates greater than 200 μg/mL) |  |  |  |  |  |  | > (> indicates greater than 1000) |  |  |  | 
12 | KFKKLAKKW-NH2 [P175] |  |  |  | > (> indicates greater than 1000) | > (> indicates greater than 1000) | 510 µg/mL | > (> indicates greater than 1000) | > (> indicates greater than 1000) | 70 µg/mL | > (> indicates greater than 1000) | > (> indicates greater than 1000) | > (> indicates greater than 1000) |  | 
13 | FKLAFKLAKKAFL-NH2 [P122] |  |  |  | 700 µg/mL | 830 µg/mL | 780 µg/mL | 360 µg/mL | 800 µg/mL | 570 µg/mL | > (> indicates greater than 1000) | 720 µg/mL |  | 720 | 
14 | MPKWKVFKKIEKVGRNIRNGIVKAGPAIAVLGEAKALG-OH [P5, reference compound] | 50 µg/mL | 100 µg/mL | > (> indicates greater than 200 μg/mL) |  |  |  |  |  |  | > (> indicates greater than 1000) |  |  |  | 
